Data on seven compounds can be found in ChEMBL document CHEMBL5230155, “Recent contributions of quinolines to antimalarial and anticancer drug discovery research” (Eur J Med Chem, 2021).

Each structure is given as a SMILES string. Values after ≈ are worked out from the molar mass of the structure shown.

The subject of one series is MCF7. As to the kind of experiment: Antiproliferative activity against human MCF7 cells. Type of series: functional, cell-based. Particulars: Homo sapiens, MCF7.
Series [1] has as its target Prostaglandin G/H synthase 2 (Homo sapiens, UniProt P35354).
Description: Inhibition of COX-2 (unknown origin)
The test system of another series is G-361. In words: Antiproliferative activity against human G-361 cells. The conditions noted are these: read-out: IC50. Type of series: functional, cell-based.
A short description of series [2]: Binding affinity to human nRNP.
Another series has as its system HeLa. In words: Antitumor activity against human HeLa cells xenografted in mouse assessed as reduction in tumor weight at 20 mg/kg/day, ip for 3 weeks. Type of series: functional. On the set-up: scale not given: the % may be the effect or the level left. On the technique in general: A xenograft is tissue or cells of one species grown in another, often human tumour cells in immunodeficient mice.

Series [3] relates to PC-3. In words: Antiproliferative activity against human PC-3 cells. Type of series: functional, cell-based.
For a further series, the system named is KG-1. In words: Cytotoxicity against human KG-1 cells. Format: functional, cell-based.
Another series deals with U-937. As to the kind of experiment: Cytotoxicity against human U-937 cells. Format: functional, cell-based.
A further series deals with Raji. As to the kind of experiment: Cytotoxicity against human Raji cells. Format: functional, cell-based.
In another series the test system is MDA-MB-231. As to the kind of experiment: Cytotoxicity against human MDA-MB-231 cells. Type of series: functional, cell-based.
The subject of the next series is HepG2. In words: Cytotoxicity against human HepG2 cells. Format: functional, cell-based.
The test system of a further series is HCT-116. As to the kind of experiment: Cytotoxicity against human HCT-116 cells. Format: functional, cell-based.
A further series relates to SK-OV-3. As to the kind of experiment: Antiproliferative activity against human SK-OV-3 cells. Format: functional, cell-based.
For a further series, the system named is NCI-H460. In words: Antiproliferative activity against human NCI-H460 cells. Format: functional, cell-based.
For a further series, the system named is BEL-7404 tumor cell line. As to the kind of experiment: Antiproliferative activity against human BEL-7404 cells. Type of series: functional, cell-based.
A further series has as its system MDA-MB-453. In words: Antiproliferative activity against human MDA-MB-453 cells. Format: functional, cell-based.
The next series deals with SNU-423. In words: Antiproliferative activity against human SNU-423 cells. Type of series: functional, cell-based.
In another series the test system is RT-112. In words: Antiproliferative activity against human RT-112 cells. Format: functional, cell-based.
The next series relates to MGC-803. As to the kind of experiment: Antiproliferative activity against human MGC-803 cells.
A further series addresses Tubulin. In words: Inhibition of tubulin polymerization (unknown origin). Type of series: protein-complex assay, Homo sapiens.
A further series concerns CWR22R. As to the kind of experiment: Antiproliferative activity against human 22Rv1 cells. Format: functional, cell-based.
For the next series, the system named is LNCaP C4-2B. As to the kind of experiment: Antiproliferative activity against human LNCaP C4-2B cells. Format: functional, cell-based.
Another series deals with DU-145. As to the kind of experiment: Antiproliferative activity against human DU-145 cells. Type of series: functional, cell-based.
In series [4] the test system is PC-3. As to the kind of experiment: Antitumor activity against human PC-3 cells xenografted in nude mouse assessed as cell growth inhibition at 50 mg/kg/day, ig administered for 21 days. Format: functional. The conditions noted are these: time 21 day. Details: scale not given: the % may be the effect or the level left.
The subject of series [5] is PC-3. As to the kind of experiment: Antitumor activity against human PC-3 cells xenografted in nude mouse assessed as cell growth inhibition at 100 mg/kg/day, ig administered for 21 days. On the set-up: scale not given: the % may be the effect or the level left. Type of series: functional. The conditions noted are these: time 21 day.
In another series the test system is UMUC3. In words: Antiproliferative activity against human UMUC3 cells. Format: functional, cell-based.
The next series has as its system RT-4. In words: Antiproliferative activity against human RT-4 cells. Type of series: functional, cell-based.
The test system of a further series is T-24. In words: Antiproliferative activity against human T24 cells. Format: functional, cell-based.
The next series has as its system SMMC-7721. As to the kind of experiment: Cytotoxicity against human SMMC-7721 cells. Type of series: functional, cell-based.
The next series relates to Huh-7. In words: Cytotoxicity against human Huh-7 cells. Format: functional, cell-based.
Series [6] can be described thus: Cytotoxicity against human L02 cells. Format: toxicity, cell-based.
Series [7] in a line: Cytotoxicity against human MRC5 cells. Type of series: toxicity, cell-based.

Prostaglandin G/H synthase 2, sequence (P35354 whole entry): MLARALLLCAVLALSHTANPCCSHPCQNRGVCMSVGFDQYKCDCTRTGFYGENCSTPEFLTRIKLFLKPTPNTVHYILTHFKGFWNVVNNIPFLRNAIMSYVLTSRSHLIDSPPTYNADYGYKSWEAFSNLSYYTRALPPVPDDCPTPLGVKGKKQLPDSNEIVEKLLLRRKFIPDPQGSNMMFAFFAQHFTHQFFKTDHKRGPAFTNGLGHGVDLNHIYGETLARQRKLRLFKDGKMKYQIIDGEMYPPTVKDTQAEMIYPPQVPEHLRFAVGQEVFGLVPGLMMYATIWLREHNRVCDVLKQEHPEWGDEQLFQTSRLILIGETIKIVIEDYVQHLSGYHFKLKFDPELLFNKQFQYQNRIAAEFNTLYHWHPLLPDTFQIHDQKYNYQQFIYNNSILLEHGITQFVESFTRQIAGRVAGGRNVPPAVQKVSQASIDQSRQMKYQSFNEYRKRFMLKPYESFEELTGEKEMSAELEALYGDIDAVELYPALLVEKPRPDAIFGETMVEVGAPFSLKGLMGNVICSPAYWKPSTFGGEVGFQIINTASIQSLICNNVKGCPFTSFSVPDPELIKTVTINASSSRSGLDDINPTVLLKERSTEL

The IC50 is the concentration at which inhibition is half-maximal. On to `COc1ccc2ccc(F)c(CC(=O)N/N=C/c3cccc(C(F)(F)F)c3)c2n1`, for which the IC50 turned out to be 2070 nM in the series on MCF7, 130 nM in series [1] and 2070 nM with G-361.
One may read the Kd as the constant that tells how readily two partners part at equilibrium. In series [2], `COc1ccc(C(=O)/C=C/c2cc(N3CCOCC3)c3cc([N+](=O)[O-])ccc3n2)cc1` showed a Kd of 4600 nM. Besides, in the series on HeLa, the Activity is reported as 69.3%.
In the case of `O=C(Nc1ccc(NC(=O)c2ccc(Nc3ccnc4ccccc34)cc2)cc1)OCc1ccccc1`, the IC50 in the series on PC-3 [3], in the series with KG-1, in the series on U-937, in the series on Raji and in the series on MDA-MB-231 was 300 nM throughout.
Regarding `O=c1[nH]cc(F)c(=O)[nH]1` [FLUOROURACIL], the 50% inhibitory concentration (IC50) in the series on HepG2 (Homo sapiens, HepG2) was 5.3 µg/mL; in the series on HepG2 (hepg2) it was 26300 nM; in the series with HCT-116, 5.3 µg/mL (≈ 40.7 µM); in the series with SK-OV-3, 26300 nM; in the series on NCI-H460 it was 26300 nM; in the series with BEL-7404 tumor cell line, 26300 nM. In addition, the IC50 came to 7400 nM in the series with MDA-MB-453; 7400 nM in the series with SNU-423; 7400 nM in the series on RT-112; 10400 nM in the series on MGC-803; 10400 nM in the series with PC-3 [3].
`COc1cc(N(CCSC(=S)N2CCN(CCO)CC2)S(=O)(=O)c2cccc3cccnc23)cc(OC)c1OC`: the IC50 came out at 4020 nM against Tubulin; 430 nM in the series with PC-3 [3]; 670 nM with CWR22R; 670 nM in the series on LNCaP C4-2B; 670 nM in the series with DU-145. Moreover, the Activity in the series on PC-3 [4] is on record as 35.6%; in the series with PC-3 [5] it was 61.4%.
Take `COc1cc(N(CCCSC(=S)N2CCN(C(C)=O)CC2)S(=O)(=O)c2cccc3cccnc23)cc(OC)c1OC`: the IC50 came out at 700 nM in the series on MDA-MB-453; 700 nM in the series with SNU-423; 700 nM in the series with RT-112; 900 nM with UMUC3; 1900 nM in the series on RT-4; 2600 nM in the series on T-24. Further, 2900 nM corresponded to half-maximal inhibition against Tubulin (IC50).
On to `COc1ccc(/C=N/NC(=O)c2ccc(Nc3ccnc4ccccc34)cc2)cc1OC`, for which the IC50 in the series on HepG2 (Homo sapiens, HepG2) amounted to 126000 nM; with SMMC-7721, 6300 nM; with Huh-7 it was 6300 nM; in [6] it was 16100 nM; in [7] it was 16100 nM.
